# In EPA's ToxValDB 9.5 (doi:10.2903/j.efsa.2015.3936):
# What was measured:
# Apis mellifera = details: acute, mortality
# Daphnia magna = details: chronic/long-term; duration: 21 days; reproduction
# Folsomia candida = details: chronic/long-term; duration: 28 days
# Oncorhynchus mykiss = details: chronic/long-term; duration: 21 days; growth
# Oryctolagus sp. = details: developmental; development
# Rattus norvegicus = details: for NOAEL: chronic
# Aphidius rhopalosiphi = test: LR50; higher = less toxic; details: other; mortality
# Typhlodromus pyri = test: LR50; higher = less toxic; details: other; mortality
compound,measurement,setting,value
COC(=O)c1ccccc1S(=O)(=O)NC(=O)Nc1nc(C)nc(OC)n1 [Metsulfuron-methyl],LD50,"Anas platyrhynchos; acute, oral, unspecified",> 2510 mg/kg-day
same,NOAEL,Anas platyrhynchos; reproductive,100 mg/kg-day
same,LC50,"Anas platyrhynchos; short-term, oral, feed",> 1280 mg/kg-day
same,LD50,Apis mellifera; dermal,> 50 µg/piece
same,LD50,"Apis mellifera; oral, unspecified",> 44.3 µg/piece
same,NOEC,Daphnia magna,3.13 mg/L
same,NOEC,Folsomia candida,≥ 250 mg/kg
same,NOEC,Oncorhynchus mykiss,68 mg/L
same,NOAEL,Oryctolagus sp.,25 mg/kg-day
same,LD50,"Rattus norvegicus; acute, oral, mortality",> 5000 mg/kg-day
same,NOAEL,Rattus norvegicus,25 mg/kg-day
same,NOAEL,"Rattus norvegicus; duration: 2 years, body weight",22.4 mg/kg-day
same,LC50,"Tagia sp.; acute, duration: 14 days, mortality",> 1000 mg/kg
same,NOEC,"Tagia sp.; chronic/long-term, duration: 56 days",0.83 mg/kg
same,LR50,Aphidius rhopalosiphi,> 8 g/ha
same,LR50,Typhlodromus pyri,> 8 g/ha
